Measurements taken from ChEMBL document CHEMBL1155915, “Anticonvulsant activity of some xanthone derivatives” (Bioorg Med Chem, 2008).
Calls of active or inactive are those of the source. No cut-off for these calls is given here.

Assays:
Mus musculus [1] = assay: Neurotoxicity in mouse at 30 mg/kg, ip after 0.5 hrs by rotarod test; assay type: toxicity, organism-based; parameters: dose 30 mg/kg, route intraperitoneal; details: in vivo
Mus musculus [2] = assay: Neurotoxicity in mouse at 30 mg/kg, ip after 4 hrs by rotarod test; assay type: toxicity, organism-based; parameters: dose 30 mg/kg, route intraperitoneal; details: in vivo
Mus musculus [3] = assay: Neurotoxicity in mouse at 100 mg/kg, ip after 4 hrs by rotarod test; assay type: toxicity, organism-based; parameters: dose 100 mg/kg, route intraperitoneal; details: in vivo
Rattus norvegicus [4] = assay: Anticonvulsant activity against maximal electroshock-induced seizures in rat at 30 mg/kg, po after 0.5 hrs; assay type: functional, organism-based; parameters: dose 30 mg/kg
Rattus norvegicus [5] = assay: Anticonvulsant activity against maximal electroshock-induced seizures in rat at 30 mg/kg, po after 1 hr; assay type: functional, organism-based; parameters: dose 30 mg/kg
Rattus norvegicus [6] = assay: Anticonvulsant activity against maximal electroshock-induced seizures in rat at 30 mg/kg, po after 2 hrs; assay type: functional, organism-based; parameters: dose 30 mg/kg
Rattus norvegicus [7] = assay: Neurotoxicity in rat at 30 mg/kg, po after 0.25 hrs by rotarod test; assay type: toxicity, organism-based; parameters: dose 30 mg/kg, route oral; details: in vivo
Rattus norvegicus [8] = assay: Neurotoxicity in rat at 30 mg/kg, po after 0.5 hrs by rotarod test; assay type: toxicity, organism-based; parameters: dose 30 mg/kg, route oral; details: in vivo
Rattus norvegicus [9] = assay: Neurotoxicity in rat at 30 mg/kg, po after 1 hr by rotarod test; assay type: toxicity, organism-based; parameters: dose 30 mg/kg, route oral; details: in vivo
Rattus norvegicus [10] = assay: Neurotoxicity in rat at 30 mg/kg, po after 2 hrs by rotarod test; assay type: toxicity, organism-based; parameters: dose 30 mg/kg, route oral; details: in vivo
Rattus norvegicus [11] = assay: Neurotoxicity in rat at 30 mg/kg, po after 4 hrs by rotarod test; assay type: toxicity, organism-based; parameters: dose 30 mg/kg, route oral; details: in vivo
Mus musculus [12] = assay: Anticonvulsant activity against maximal electroshock-induced seizures in mouse at 30 mg/kg, ip after 0.5 hrs; assay type: functional, organism-based; parameters: dose 30 mg/kg
Mus musculus [13] = assay: Anticonvulsant activity against maximal electroshock-induced seizures in mouse at 30 mg/kg, ip after 4 hrs; assay type: functional, organism-based; parameters: dose 30 mg/kg
Mus musculus [14] = assay: Anticonvulsant activity against maximal electroshock-induced seizures in mouse at 100 mg/kg, ip after 0.5 hrs; assay type: functional, organism-based; parameters: dose 100 mg/kg
Mus musculus [15] = assay: Anticonvulsant activity against maximal electroshock-induced seizures in mouse at 100 mg/kg, ip after 4 hrs; assay type: functional, organism-based; parameters: dose 100 mg/kg
Mus musculus [16] = assay: Anticonvulsant activity against maximal electroshock-induced seizures in mouse at 300 mg/kg, ip after 0.5 hrs; assay type: functional, organism-based; parameters: dose 300 mg/kg
Mus musculus [17] = assay: Anticonvulsant activity against maximal electroshock-induced seizures in mouse at 300 mg/kg, ip after 4 hrs; assay type: functional, organism-based; parameters: dose 300 mg/kg
Mus musculus [18] = assay: Anticonvulsant activity against scMet-induced seizures in mouse at 100 mg/kg, ip after 4 hrs; assay type: functional, organism-based; parameters: dose 100 mg/kg
Mus musculus [19] = assay: Anticonvulsant activity against scMet-induced seizures in mouse at 30 mg/kg, ip after 0.5 hrs; assay type: functional, organism-based; parameters: dose 30 mg/kg
Mus musculus [20] = assay: Anticonvulsant activity against scMet-induced seizures in mouse at 30 mg/kg, ip after 4 hrs; assay type: functional, organism-based; parameters: dose 30 mg/kg
Mus musculus [21] = assay: Anticonvulsant activity against scMet-induced seizures in mouse at 100 mg/kg, ip after 0.5 hrs; assay type: functional, organism-based; parameters: dose 100 mg/kg
Mus musculus [22] = assay: Anticonvulsant activity against scMet-induced seizures in mouse at 300 mg/kg, ip after 0.5 hrs; assay type: functional, organism-based; parameters: dose 300 mg/kg
Mus musculus [23] = assay: Anticonvulsant activity against scMet-induced seizures in mouse at 300 mg/kg, ip after 4 hrs; assay type: functional, organism-based; parameters: dose 300 mg/kg
[24] = Neurotoxicity in ip dosed mouse by rotarod test; assay type: toxicity, organism-based; details: in vivo
Mus musculus [25] = assay: Anticonvulsant activity against scMet-induced seizures in ip dosed mouse; assay type: functional
Mus musculus [26] = assay: Neurotoxicity in mouse at 100 mg/kg, ip after 0.5 hrs by rotarod test; assay type: toxicity, organism-based; parameters: dose 100 mg/kg, route intraperitoneal; details: in vivo
Mus musculus [27] = assay: Neurotoxicity in mouse at 300 mg/kg, ip after 4 hrs by rotarod test; assay type: toxicity, organism-based; parameters: dose 300 mg/kg, route intraperitoneal; details: in vivo
[28] = Displacement of [3H]flunitrazepam from benzodiazepine receptor in rat brain cortex by scintillation counting; assay type: tissue-based
[29] = Displacement of [3H]nitrendipine from voltage-dependent calcium channel in rat brain cortex by scintillation counting; assay type: tissue-based
Mus musculus [30] = assay: Anticonvulsant activity against maximal electroshock-induced seizures in ip dosed mouse; assay type: functional
Mus musculus [31] = organism: Mus musculus; assay: Protective index, ratio of TD50 for mouse by rotarod test to ED50 for mouse by MES test; assay type: functional
Mus musculus [32] = assay: Neurotoxicity in mouse at 30 mg/kg, ip after 1 hr by rotarod test; assay type: toxicity, organism-based; parameters: dose 30 mg/kg, route intraperitoneal; details: in vivo
Mus musculus [33] = assay: Neurotoxicity in mouse at 100 mg/kg, ip after 1 hr by rotarod test; assay type: toxicity, organism-based; parameters: dose 100 mg/kg, route intraperitoneal; details: in vivo
Mus musculus [34] = assay: Neurotoxicity in mouse at 300 mg/kg, ip after 0.5 hrs by rotarod test; assay type: toxicity, organism-based; parameters: dose 300 mg/kg, route intraperitoneal; details: in vivo
Rattus norvegicus [35] = assay: Anticonvulsant activity against maximal electroshock-induced seizures in rat at 30 mg/kg, po after 0.25 hrs; assay type: functional, organism-based; parameters: dose 30 mg/kg
Rattus norvegicus [36] = assay: Anticonvulsant activity against maximal electroshock-induced seizures in rat at 30 mg/kg, po after 4 hrs; assay type: functional, organism-based; parameters: dose 30 mg/kg
Mus musculus [37] = organism: Mus musculus; assay: Protective index, ratio of TD50 for mouse by rotarod test to ED50 for mouse by scMET test; assay type: functional

Row | Structure (SMILES) | Neurotoxicity (Mus musculus [1]) | Neurotoxicity (Mus musculus [2]) | Neurotoxicity (Mus musculus [3]) | Activity (Rattus norvegicus [4]) | Activity (Rattus norvegicus [5]) | Activity (Rattus norvegicus [6]) | Neurotoxicity (Rattus norvegicus [7]) | Neurotoxicity (Rattus norvegicus [8]) | Neurotoxicity (Rattus norvegicus [9]) | Neurotoxicity (Rattus norvegicus [10]) | Neurotoxicity (Rattus norvegicus [11]) | Activity (Mus musculus [12]) | Activity (Mus musculus [13]) | Activity (Mus musculus [16]) | Activity (Mus musculus [17]) | Activity (Mus musculus [18]) | Activity (Mus musculus [19]) | Activity (Mus musculus [20]) | Activity (Mus musculus [22]) | Activity (Mus musculus [23]) | also measured
1 | CC(CCl)NCc1ccc2oc3cc(Cl)ccc3c(=O)c2c1.Cl (racemic) | Not Active | Not Active | Not Active | inactive | inactive | inactive | Not Active | Not Active | Not Active | Not Active | Not Active | inactive | inactive | inactive | inactive | inactive | inactive | inactive | inactive | inactive | Activity (Mus musculus [14]): inactive; Activity (Mus musculus [15]): inactive; Activity (Mus musculus [21]): inactive
2 | CCCC(CCC)C(=O)[O-].[Na+] [VALPROATE SODIUM] |  |  |  |  |  |  |  |  |  |  |  |  |  |  |  |  |  |  |  |  | TD50 [24]: 483 mg/kg; ED50 (Mus musculus [25]): 290 mg/kg
3 | C[C@@H](CO)NCc1ccc2oc3cc(Cl)ccc3c(=O)c2c1 | Not Active | Not Active | Not Active | inactive | inactive | inactive | Not Active | Not Active | Not Active | Not Active | Not Active | inactive | inactive | Active | Active | inactive | inactive | inactive | inactive | inactive | Neurotoxicity (Mus musculus [26]): Not Active; Neurotoxicity (Mus musculus [27]): Not Active; TD50 [24]: < 500 mg/kg; ED50 (Mus musculus [25]): > 350 mg/kg; EC50 [28]: 30 µM; EC50 [29]: 7.6 µM; ED50 (Mus musculus [30]): 73 mg/kg; PI (Mus musculus [31]): <6.851
4 | Cl.O=c1c2ccc(Cl)cc2oc2ccc(CNCCCO)cc12 | Not Active | Not Active | Not Active | inactive | inactive | inactive | Not Active | Not Active | Not Active | Not Active | Not Active | inactive | inactive | Active | inactive | inactive | inactive | inactive | inactive | inactive | Neurotoxicity (Mus musculus [32]): Not Active; Neurotoxicity (Mus musculus [33]): Not Active; Neurotoxicity (Mus musculus [34]): Neurotoxic; Neurotoxicity (Mus musculus [27]): Neurotoxic; Activity (Rattus norvegicus [35]): inactive; Activity (Rattus norvegicus [36]): inactive; Activity (Mus musculus [14]): inactive; Activity (Mus musculus [15]): inactive; Activity (Mus musculus [21]): inactive
5 | CC[C@@H](CO)NCCOc1c(C)cccc1C |  |  |  |  |  |  |  |  |  |  |  |  |  |  |  |  |  |  |  |  | ED50 (Mus musculus [30]): 7.57 mg/kg; PI (Mus musculus [31]): 4.55
6 | NC(=O)N1c2ccccc2C=Cc2ccccc21 [CARBAMAZEPINE] |  |  |  |  |  |  |  |  |  |  |  |  |  |  |  |  |  |  |  |  | ED50 (Mus musculus [25]): > 50 mg/kg; PI (Mus musculus [37]): <1; EC50 [29]: 1.2 µM
